The values that follow come from paper PMC7827406, “Structure–Activity Relationship (SAR) Study of Spautin-1 to Entail the Discovery of Novel NEK4 Inhibitors” (International Journal of Molecular Sciences, 2021).

Structures are written as SMILES. Where two headings read alike, the source gives them in different places.

What all share (experiment): biochemical
Common to all, as to set-up: Eurofins KinaseProfiler full panel at Km ATP, residual kinase activity (%) relative to DMSO

One experiment has as its target ATM(h) (Homo sapiens, UniProt Q13315). In short, it runs like this: (§1)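 Two 10 µM single-concentration screens were run: a competition-binding screen, in which DNA-tagged kinase bound to immobilized ligands was quantified by qPCR, and a radiometric activity panel at Km ATP. Each is expressed as residual kinase activity (%).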
In the next experiment the target is T1, Ros(h) (Homo sapiens, UniProt P08922).
T1 construct: gene ROS1
In short, it runs like this:
as §1

For another experiment, the target named is T2, NEK2(h) (Homo sapiens, UniProt P51955).
T2 sequence (P51955 1-445): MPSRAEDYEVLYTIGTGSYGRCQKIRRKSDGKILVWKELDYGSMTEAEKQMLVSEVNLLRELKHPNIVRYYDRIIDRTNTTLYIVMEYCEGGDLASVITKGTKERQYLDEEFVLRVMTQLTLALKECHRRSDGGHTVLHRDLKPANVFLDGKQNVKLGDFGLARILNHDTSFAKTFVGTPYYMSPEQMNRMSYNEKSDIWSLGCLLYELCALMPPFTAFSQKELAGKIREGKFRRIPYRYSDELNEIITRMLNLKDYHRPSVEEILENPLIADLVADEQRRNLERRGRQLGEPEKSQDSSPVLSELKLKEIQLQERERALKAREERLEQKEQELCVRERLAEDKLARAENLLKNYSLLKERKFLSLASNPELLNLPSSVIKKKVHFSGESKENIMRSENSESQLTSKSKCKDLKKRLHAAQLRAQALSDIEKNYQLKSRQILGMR
In outline:
as §1

Another experiment concerns the target T3, TrkB(h) (Homo sapiens, UniProt Q16620).
T3 construct: gene NTRK2
In outline:
as §1

In a further experiment the target is T4, Rsk2(h) (Homo sapiens, UniProt P51812).
T4 construct: gene RPS6KA3
T4 sequence (P51812 whole entry): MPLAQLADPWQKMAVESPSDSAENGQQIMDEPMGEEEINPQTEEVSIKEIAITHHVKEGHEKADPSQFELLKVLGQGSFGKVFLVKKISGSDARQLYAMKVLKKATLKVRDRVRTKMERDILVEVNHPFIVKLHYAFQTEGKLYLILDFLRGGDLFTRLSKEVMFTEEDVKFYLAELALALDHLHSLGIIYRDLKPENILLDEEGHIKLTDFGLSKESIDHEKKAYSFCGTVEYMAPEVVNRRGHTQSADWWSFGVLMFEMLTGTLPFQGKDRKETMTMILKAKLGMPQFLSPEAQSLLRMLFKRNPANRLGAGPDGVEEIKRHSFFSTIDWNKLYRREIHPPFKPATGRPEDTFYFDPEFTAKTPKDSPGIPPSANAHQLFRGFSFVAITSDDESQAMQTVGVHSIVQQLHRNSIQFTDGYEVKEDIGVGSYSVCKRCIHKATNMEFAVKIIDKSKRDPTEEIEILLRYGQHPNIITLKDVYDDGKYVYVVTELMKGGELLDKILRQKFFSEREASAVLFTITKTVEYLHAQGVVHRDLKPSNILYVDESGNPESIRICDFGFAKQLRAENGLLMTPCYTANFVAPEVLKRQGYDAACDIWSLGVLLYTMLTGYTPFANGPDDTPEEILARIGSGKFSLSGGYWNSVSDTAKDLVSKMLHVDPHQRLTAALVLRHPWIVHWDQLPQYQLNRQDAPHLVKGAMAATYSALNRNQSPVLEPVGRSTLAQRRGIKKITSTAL
In outline:
as §1

The target of experiment [1] is T5, PI3 Kinase (p110a(E542K)/p85a)(h) (Homo sapiens, UniProt P42336, E542K).
T5 construct: gene PIK3CA
T5 sequence (P42336 whole entry E542K): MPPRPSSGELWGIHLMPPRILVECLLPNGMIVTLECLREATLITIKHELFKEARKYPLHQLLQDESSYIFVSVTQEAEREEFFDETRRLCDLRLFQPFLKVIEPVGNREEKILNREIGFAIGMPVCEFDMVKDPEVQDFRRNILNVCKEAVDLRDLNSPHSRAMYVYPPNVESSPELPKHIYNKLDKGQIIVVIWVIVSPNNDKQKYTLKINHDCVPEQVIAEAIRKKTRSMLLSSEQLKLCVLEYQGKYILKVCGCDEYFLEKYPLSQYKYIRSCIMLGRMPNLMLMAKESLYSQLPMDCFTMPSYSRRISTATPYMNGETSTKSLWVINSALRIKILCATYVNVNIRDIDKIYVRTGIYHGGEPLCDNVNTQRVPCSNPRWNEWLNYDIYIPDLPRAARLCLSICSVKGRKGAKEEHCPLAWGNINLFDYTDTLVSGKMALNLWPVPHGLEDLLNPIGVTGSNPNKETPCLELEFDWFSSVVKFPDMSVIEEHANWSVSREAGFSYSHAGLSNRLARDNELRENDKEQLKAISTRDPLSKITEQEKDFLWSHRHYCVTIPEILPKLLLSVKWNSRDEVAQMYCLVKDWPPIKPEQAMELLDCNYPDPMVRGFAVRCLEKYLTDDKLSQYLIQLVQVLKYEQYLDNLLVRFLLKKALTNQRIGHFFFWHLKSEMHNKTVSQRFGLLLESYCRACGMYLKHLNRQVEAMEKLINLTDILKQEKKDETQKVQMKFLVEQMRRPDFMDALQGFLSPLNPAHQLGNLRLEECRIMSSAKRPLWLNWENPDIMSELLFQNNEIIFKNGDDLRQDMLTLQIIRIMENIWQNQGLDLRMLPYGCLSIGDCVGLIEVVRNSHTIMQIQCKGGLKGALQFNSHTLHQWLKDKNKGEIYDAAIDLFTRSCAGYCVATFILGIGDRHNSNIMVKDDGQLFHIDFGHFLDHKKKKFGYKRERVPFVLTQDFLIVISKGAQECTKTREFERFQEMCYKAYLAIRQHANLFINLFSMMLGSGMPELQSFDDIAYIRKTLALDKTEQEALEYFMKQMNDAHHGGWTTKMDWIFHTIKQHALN
T5 sequence (P27986 whole entry partner): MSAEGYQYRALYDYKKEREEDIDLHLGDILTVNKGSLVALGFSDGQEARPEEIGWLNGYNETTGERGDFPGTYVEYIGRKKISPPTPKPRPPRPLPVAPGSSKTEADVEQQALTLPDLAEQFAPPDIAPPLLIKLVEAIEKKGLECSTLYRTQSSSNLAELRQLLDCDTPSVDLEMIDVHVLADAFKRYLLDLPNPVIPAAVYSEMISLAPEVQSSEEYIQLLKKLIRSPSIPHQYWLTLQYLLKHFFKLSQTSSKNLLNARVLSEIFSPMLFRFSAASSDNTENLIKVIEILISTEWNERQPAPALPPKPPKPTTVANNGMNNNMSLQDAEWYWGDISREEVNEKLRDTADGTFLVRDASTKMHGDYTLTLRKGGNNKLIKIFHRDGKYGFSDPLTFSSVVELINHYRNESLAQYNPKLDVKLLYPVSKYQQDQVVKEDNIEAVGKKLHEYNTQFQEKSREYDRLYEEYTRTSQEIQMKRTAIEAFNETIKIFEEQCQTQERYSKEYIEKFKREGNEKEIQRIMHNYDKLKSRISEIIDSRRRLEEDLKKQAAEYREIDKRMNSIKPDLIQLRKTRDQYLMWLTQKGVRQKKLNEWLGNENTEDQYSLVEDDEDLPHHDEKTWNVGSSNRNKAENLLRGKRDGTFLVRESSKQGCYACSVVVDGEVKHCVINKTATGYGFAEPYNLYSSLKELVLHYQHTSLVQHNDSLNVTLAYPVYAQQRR
In outline:
as §1

Another experiment has as its target Flt1(h) (Homo sapiens, UniProt P17948). In short, it runs like this:
as §1

For another experiment, the target named is T6, Mer(h) (Homo sapiens, UniProt Q12866).
T6 construct: gene MERTK
T6 sequence (Q12866 1-999): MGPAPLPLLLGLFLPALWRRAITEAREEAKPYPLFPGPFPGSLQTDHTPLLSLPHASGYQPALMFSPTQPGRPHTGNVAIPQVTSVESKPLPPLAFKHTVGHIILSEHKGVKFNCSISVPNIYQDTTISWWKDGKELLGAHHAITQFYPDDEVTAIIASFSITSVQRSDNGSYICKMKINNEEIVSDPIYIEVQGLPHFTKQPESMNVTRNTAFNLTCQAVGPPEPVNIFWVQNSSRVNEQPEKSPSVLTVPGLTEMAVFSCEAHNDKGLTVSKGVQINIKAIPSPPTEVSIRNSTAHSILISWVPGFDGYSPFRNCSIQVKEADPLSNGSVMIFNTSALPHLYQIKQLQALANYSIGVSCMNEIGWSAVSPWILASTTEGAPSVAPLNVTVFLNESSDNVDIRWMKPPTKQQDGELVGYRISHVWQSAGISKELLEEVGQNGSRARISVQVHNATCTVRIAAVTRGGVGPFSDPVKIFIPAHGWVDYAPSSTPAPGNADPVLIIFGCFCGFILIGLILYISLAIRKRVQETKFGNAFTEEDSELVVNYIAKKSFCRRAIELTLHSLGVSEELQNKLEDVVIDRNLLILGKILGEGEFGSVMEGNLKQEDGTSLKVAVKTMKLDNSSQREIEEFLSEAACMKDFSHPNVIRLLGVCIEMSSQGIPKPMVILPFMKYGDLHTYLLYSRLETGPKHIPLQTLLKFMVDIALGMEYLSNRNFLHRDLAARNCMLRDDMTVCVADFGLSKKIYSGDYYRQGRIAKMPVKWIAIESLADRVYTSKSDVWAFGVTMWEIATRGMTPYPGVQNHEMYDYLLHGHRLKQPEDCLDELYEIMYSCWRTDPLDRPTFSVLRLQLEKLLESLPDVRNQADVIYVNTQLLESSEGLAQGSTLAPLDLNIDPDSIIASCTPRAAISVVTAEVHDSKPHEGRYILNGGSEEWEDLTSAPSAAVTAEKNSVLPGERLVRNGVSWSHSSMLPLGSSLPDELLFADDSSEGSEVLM
In short, it runs like this: as §1

The target of a further experiment is STK16(h) (Homo sapiens, UniProt O75716). In short, it runs like this:
as §1

A further experiment concerns the target RIPK2(h) (Homo sapiens, UniProt O43353). In short, it runs like this:
as §1

[2] abbreviates: read-out: Residual activity (%) Spautin-1 5aa.
Where [3] appears, read: read-out: Residual activity (%) 5as.
Where [4] appears, read: read-out: Residual activity (%) 5at.
Where [5] appears, read: read-out: Residual activity (%) 5ay.

T3 sequence (Q16620 whole entry): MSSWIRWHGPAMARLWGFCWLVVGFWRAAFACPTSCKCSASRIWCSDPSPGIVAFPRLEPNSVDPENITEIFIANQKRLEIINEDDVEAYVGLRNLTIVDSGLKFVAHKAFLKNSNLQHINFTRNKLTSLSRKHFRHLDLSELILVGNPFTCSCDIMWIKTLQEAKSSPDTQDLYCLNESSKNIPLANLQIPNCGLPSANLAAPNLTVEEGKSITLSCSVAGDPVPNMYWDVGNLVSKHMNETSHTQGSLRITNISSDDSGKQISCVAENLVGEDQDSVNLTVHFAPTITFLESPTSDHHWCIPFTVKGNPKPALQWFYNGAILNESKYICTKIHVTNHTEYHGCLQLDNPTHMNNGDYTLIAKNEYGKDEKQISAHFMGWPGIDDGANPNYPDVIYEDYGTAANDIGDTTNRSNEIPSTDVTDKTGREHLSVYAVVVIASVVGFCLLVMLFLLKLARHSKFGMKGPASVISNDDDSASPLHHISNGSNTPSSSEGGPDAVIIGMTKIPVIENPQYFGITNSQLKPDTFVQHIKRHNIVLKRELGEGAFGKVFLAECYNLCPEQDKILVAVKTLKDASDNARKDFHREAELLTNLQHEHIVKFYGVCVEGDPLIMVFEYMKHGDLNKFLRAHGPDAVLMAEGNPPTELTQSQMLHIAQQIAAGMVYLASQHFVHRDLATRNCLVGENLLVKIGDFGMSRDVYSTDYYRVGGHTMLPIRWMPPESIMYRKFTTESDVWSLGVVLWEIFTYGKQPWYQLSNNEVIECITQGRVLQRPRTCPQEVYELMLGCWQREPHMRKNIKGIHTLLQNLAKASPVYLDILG
Chain of Flt1(h) (P17948 whole entry): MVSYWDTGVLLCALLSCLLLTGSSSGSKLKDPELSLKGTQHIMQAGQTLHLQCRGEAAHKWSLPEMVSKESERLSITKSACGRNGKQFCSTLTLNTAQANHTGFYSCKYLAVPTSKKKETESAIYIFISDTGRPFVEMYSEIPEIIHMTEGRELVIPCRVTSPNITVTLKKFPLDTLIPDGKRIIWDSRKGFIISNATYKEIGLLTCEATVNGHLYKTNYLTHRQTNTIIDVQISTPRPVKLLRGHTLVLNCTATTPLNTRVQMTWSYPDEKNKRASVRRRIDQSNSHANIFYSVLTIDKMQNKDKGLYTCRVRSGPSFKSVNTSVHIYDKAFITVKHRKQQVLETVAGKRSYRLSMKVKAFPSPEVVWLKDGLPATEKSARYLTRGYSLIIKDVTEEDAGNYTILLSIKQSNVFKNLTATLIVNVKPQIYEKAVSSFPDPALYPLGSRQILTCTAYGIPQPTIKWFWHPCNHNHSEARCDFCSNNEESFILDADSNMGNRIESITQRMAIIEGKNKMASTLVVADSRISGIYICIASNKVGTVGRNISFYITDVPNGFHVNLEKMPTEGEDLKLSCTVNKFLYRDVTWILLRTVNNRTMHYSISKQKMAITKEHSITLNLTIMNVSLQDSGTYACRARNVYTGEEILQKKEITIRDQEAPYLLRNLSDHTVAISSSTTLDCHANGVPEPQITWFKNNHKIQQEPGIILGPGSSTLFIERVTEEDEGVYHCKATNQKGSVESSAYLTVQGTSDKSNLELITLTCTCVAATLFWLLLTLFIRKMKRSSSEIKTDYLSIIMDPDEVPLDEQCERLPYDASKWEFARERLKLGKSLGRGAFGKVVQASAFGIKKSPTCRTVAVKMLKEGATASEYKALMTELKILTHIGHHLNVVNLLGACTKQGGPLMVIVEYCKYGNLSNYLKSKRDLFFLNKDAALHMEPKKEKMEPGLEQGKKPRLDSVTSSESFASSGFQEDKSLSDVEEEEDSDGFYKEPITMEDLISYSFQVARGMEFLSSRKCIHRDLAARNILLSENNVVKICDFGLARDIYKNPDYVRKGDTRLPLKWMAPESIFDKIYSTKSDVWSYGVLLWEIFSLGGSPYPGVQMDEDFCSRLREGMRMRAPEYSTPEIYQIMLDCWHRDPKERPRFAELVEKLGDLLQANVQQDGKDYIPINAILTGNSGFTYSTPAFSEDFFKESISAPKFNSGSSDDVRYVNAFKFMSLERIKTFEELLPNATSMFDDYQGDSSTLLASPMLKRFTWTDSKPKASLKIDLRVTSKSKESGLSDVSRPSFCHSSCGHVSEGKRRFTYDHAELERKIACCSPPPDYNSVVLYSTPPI
Chain of STK16(h) (O75716 whole entry): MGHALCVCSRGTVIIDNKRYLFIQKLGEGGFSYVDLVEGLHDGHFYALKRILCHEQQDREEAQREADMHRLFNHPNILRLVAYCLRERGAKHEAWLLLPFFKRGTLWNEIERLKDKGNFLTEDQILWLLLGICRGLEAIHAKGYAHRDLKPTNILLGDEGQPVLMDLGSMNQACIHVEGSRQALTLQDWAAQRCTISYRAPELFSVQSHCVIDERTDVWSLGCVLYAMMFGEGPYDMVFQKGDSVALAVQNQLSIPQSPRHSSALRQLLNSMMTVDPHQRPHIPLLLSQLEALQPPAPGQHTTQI

`Fc1ccc(CNc2ncnc3ccc(F)cc23)cc1` [5aa, 6-Fluoro-N-(4-fluorobenzyl)-4-Quinazolinamine]: the remaining activity at 10 µM came to 93% on ATM(h) (setting [2]); 95% at Ros(h) (setting [2]); 91% on NEK2(h) (setting [2]); 87% on TrkB(h) (setting [2]); 93% on Rsk2(h) (setting [2]); 94% in experiment [1] (setting [2]). The remaining activity at 10 µM on Flt1(h) (setting [2]) stood at 101%; on Mer(h) (setting [2]), 83%; on STK16(h) (setting [2]), 88%; on RIPK2(h) (setting [2]), 82%.
As for `Fc1ccc(CCNc2ncnc3ccc(F)cc23)cc1` [5as, 6-Fluoro-N-[2-(4-Fluorophenyl)Ethyl]-4-Quinazolinamine], the remaining activity at 10 µM at ATM(h) (setting [3]) was found to be 88%; on Ros(h) (setting [3]), 101%; on NEK2(h) (setting [3]), 88%; at TrkB(h) (setting [3]) it was 81%; on Rsk2(h) (setting [3]) it was 79%; in [1] (setting [3]) it was 91%. For the same compound, the remaining activity at 10 µM on Flt1(h) (setting [3]) was determined as 86%; on Mer(h) (setting [3]), 83%; on STK16(h) (setting [3]) it was 75%; at RIPK2(h) (setting [3]) it was 86%.
Consider `Fc1ccc2ncnc(NCCc3ccc(Cl)cc3)c2c1` [5at, N-[2-(4-Chlorophenyl)Ethyl]-6-Fluoro-4-Quinazolinamine], for which the remaining activity at 10 µM at ATM(h) (setting [4]) is 86%; on Ros(h) (setting [4]), 105%; on NEK2(h) (setting [4]), 95%; at TrkB(h) (setting [4]), 81%; on Rsk2(h) (setting [4]), 73%; in [1] (setting [4]), 93%. Also, the remaining activity at 10 µM on Flt1(h) (setting [4]) stood at 80%; on Mer(h) (setting [4]), 89%; on STK16(h) (setting [4]), 78%; at RIPK2(h) (setting [4]), 86%.
`COc1ccc2ncnc(Nc3cccc(F)c3)c2c1` [5ay, N-(3-Fluorophenyl)-6-Methoxy-4-Quinazolinamine]: the remaining activity at 10 µM is 90% at ATM(h) (setting [5]); 101% on Ros(h) (setting [5]); 92% at NEK2(h) (setting [5]); 96% on TrkB(h) (setting [5]); 70% at Rsk2(h) (setting [5]); 88% in experiment [1] (setting [5]). The remaining activity at 10 µM at Flt1(h) (setting [5]) came out at 87%; at Mer(h) (setting [5]), 68%; at STK16(h) (setting [5]), 76%; on RIPK2(h) (setting [5]), 22%.
